# Patent publication US8871933B2, “Purified pyrroloquinolinyl-pyrrolidine-2,5-dione compositions and methods for preparing and using same” (ArQule, Inc., priority 2009, dated 2014)
# Assays:
# [1] = system: Human cancer cell lines expressing c-Met and/or phospho-c-Met; test: Cytotoxicity MTS assay; assay type: cell-based; details: 0.03 to 30 μM
# Procedure: (§1) Various cancer cell lines were treated with (−)-trans-3-(5,6-dihydro-4H-pyrrolo[3,2,1-ij]quinolin-1-yl)-4-(1H-indol-3-yl)pyrrolidine-2,5-dione at indicated concentrations ranging from 0.03 to 30 μM. The sensitivity of these cells to (−)-trans-3-(5,6-dihydro-4H-pyrrolo[3,2,1-ij]quinolin-1-yl)-4-(1H-indol-3-yl)pyrrolidine-2,5-dione was measured by a standard cytoxicity MTS assay (FIG. 10). Human cancer cell lines expressing c-Met and/or phospho-c-Met were sensitive to (−)-trans-3-(5,6-dihydro-4H-pyrrolo[3,2,1-ij]quinolin-1-yl)-4-(1H-indol-3-yl)pyrrolidine-2,5-dione.
# [2] = system: panel (n=230) of human kinases; test: Large panel (n=230) of human kinases; assay type: biochemical; details: n=230 human kinases
# Procedure: (§2) (−)-trans-3-(5,6-dihydro-4H-pyrrolo[3,2,1-ij]quinolin-1-yl)-4-(1H-indol-3-yl)pyrrolidine-2,5-dione was assessed for its activity to inhibit a large panel (n=230) of human kinases.
# [3] = system: MDA-MB-231 breast cancer cells; test: Cancer cell invasion assay (inserts); assay type: cell-based; details: Homo sapiens, 24 hours pretreatment, 24 hours invasion, estimated, read-out: IC50, inhibition of invasive phenotype
# Procedure: MDA-MB-231 cells were pretreated with indicated concentrations of (−)-trans-3-(5,6-dihydro-4H-pyrrolo[3,2,1-ij]quinolin-1-yl)-4-(1H-indol-3-yl)pyrrolidine-2,5-dione for 24 hours. 300 μl of each cell suspension (at a concentration 0.5×10^6 cells/mL in serum free medium) was placed in individual inserts and incubated for 24 hours at 37° C. The bottom wells housing the inserts contained […] of 10% FBS containing medium. […] Each insert was then transferred to a clean well containing cell stain solution and incubated for 10 minutes at room temperature. The bottom of the insert was destained by incubating in extraction solution and OD was measured at 560 nm. (−)-trans-3-(5,6-dihydro-4H-pyrrolo[3,2,1-ij]quinolin-1-yl)-4-(1H-indol-3-yl)pyrrolidine-2,5-dione inhibited the migration across interstices in confluent cultures of MDA-MB-231 cancer cells. The data represent the mean of two independent experiments. (See FIG. 7)
# MDA-MB-231 cells = test: Colony formation / surviving fraction assay; assay type: cell-based; details: Homo sapiens, two days incubation, colonies counted two weeks later, read-out: IC50 (surviving fraction equaled 50)
# Procedure: MDA-MB-231 cells (ATCC #HTB-26), grown in DMEM plus 15% heat inactivated fetal bovine serum plus 10 mM HEPES pH 7.5, were plated in 60 mm^2 plates (2×10^5 cells per plate). After two days candidate compounds in DMSO at various concentrations were diluted in media and added to individual plates such that the final DMSO concentration in the cell culture media was 0.1%. After two days incubation the culture was trypsinized, cells were washed with media, counted using a hemocytometer and 500 cells, including cell bodies, were plated in 100 mm^2 plates in media. Two weeks later the media was removed and the cell colonies were fixed with methanol for 10 minutes, stained with 1% crystal violet for 10 minutes, washed with water and air dried. Cell colonies were visually counted when there were greater then 50 cells present per colony. Plating efficiency was defined as the average number of colonies formed divided by 500. The surviving fraction was defined as the plating efficiency of a candidate compound divided by the plating efficiency of DMSO multiplied by 100. For candidate compound titrations, the IC50 value was determined by fitting the equation y=Ae^Bx to the data points and extrapolating the concentration where surviving fraction equaled 50. […]
# [4] = system: human gastric cancer MKN45; test: Human gastric cancer xenograft; assay type: in vivo; details: monotherapy
# Procedure: The efficacy of (−)-trans-3-(5,6-dihydro-4H-pyrrolo[3,2,1-ij]quinolin-1-yl)-4-(1H-indol-3-yl)pyrrolidine-2,5-dione was also tested in xenograft models with several other cancer cell lines: human pancreatic cancer MIA PaCa2 (FIG. 9, Panel B), human prostate cancer PC3 (FIG. 9, Panel C) and human gastric cancer MKN45 (FIG. 9, Panel D). The cells were treated with (−)-trans-3-(5,6-dihydro-4H-pyrrolo[3,2,1-ij]quinolin-1-yl)-4-(1H-indol-3-yl)pyrrolidine-2,5-dione as a monotherapy at indicated concentrations.
# CAMKIIδ = CAMKIIδ (Homo sapiens, UniProt Q13557); test: Kinase panel inhibition, CAMKIIδ; assay type: biochemical
# Procedure: as §2
# phospho-c-Met = molecular target: T1, phospho-c-Met (Homo sapiens, UniProt P08581); test: Phospho-c-Met in HT-29 xenograft tumors (immunohistochemistry, Western blotting); assay type: in vivo, mice; details: single dose 300 mg/kg, 24 hours later
# T1 construct: from tissue; host or cells: HT-29 xenograft tumour in mice
# Procedure: A human colon cancer xenograft model with HT-29 human colon cancer cells was established as described in Example 23. The tumor-bearing mice were treated with a single dose of (−)-trans-3-(5,6-dihydro-4H-pyrrolo[3,2,1-ij]quinolin-1-yl)-4-(1H-indol-3-yl)pyrrolidine-2,5-dione (300 mg/kg). The reduction of phospho-c-Met was detected immunohistochemically 24 hours later. […] Western blotting of the tumor sample for phospho-c-Met confirmed the immunohistochemical analysis (FIG. 11, Panel B).
# NCI-H661 = test: Cytotoxicity MTS assay; assay type: cell-based, human; details: 0.03 to 30 μM; no immunodetectable c-Met or phospho-c-Met
# Procedure: as §1
# SK-MEL-28 = test: Cytotoxicity MTS assay; assay type: cell-based, human; details: 0.03 to 30 μM; no immunodetectable c-Met or phospho-c-Met
# Procedure: as §1
# MCF-7 = test: Cytotoxicity MTS assay; assay type: cell-based, human; details: 0.03 to 30 μM; no immunodetectable c-Met or phospho-c-Met
# Procedure: as §1
# T1 sequence (P08581 25-1390): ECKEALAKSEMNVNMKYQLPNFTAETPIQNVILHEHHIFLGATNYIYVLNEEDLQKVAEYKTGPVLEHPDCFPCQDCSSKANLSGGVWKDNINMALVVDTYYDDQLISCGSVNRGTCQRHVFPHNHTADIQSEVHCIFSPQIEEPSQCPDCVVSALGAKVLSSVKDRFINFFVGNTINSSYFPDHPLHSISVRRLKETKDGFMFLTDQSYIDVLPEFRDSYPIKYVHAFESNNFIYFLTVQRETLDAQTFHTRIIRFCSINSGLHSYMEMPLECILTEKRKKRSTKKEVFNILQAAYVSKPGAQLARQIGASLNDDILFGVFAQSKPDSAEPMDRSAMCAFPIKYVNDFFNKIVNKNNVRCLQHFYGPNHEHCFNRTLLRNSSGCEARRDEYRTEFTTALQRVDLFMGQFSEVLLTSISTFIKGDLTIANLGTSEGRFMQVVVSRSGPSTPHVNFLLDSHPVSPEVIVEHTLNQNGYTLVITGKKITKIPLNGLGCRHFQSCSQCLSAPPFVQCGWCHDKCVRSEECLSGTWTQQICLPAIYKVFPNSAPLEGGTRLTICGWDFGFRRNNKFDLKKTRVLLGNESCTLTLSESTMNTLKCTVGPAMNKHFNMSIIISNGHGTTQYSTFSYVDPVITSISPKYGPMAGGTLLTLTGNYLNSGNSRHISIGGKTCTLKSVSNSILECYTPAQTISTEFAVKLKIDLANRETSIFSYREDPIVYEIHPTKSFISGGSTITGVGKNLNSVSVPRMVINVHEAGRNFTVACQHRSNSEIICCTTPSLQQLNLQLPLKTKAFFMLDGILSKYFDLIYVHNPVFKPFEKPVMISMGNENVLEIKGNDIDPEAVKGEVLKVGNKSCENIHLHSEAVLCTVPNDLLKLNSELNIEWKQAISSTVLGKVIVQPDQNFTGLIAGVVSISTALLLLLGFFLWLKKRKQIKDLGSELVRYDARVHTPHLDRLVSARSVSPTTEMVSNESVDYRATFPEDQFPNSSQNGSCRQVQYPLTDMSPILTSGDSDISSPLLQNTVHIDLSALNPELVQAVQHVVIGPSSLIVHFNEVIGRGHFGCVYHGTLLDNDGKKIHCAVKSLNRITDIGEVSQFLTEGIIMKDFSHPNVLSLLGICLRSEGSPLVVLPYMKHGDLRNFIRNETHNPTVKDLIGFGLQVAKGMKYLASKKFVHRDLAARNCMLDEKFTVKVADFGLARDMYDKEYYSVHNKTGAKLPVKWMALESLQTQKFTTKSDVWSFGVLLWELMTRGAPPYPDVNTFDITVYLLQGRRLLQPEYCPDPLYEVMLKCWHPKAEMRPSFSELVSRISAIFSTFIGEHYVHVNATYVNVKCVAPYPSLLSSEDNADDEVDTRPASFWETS
smiles,measurement,setting,value
"O=C1NC(=O)[C@@H](c2cn3c4c(cccc24)CCC3)[C@@H]1c1c[nH]c2ccccc12 (single isomer, unassigned) [(−)-trans-3-(5,6-dihydro-4H-pyrrolo[3,2,1-ij]quinolin-1-yl)-4-(1H-indol-3-yl)pyrrolidine-2,5-dione]",sensitivity (cytotoxicity MTS assay),[1],sensitive
same,kinase selectivity in panel,[2],inhibited only c-Met to a significant degree
same,IC50,[3],~500 nM
same,IC50,MDA-MB-231 cells,620 nM
same,tumor growth,[4],significantly inhibited tumor growth
same,IC50,CAMKIIδ,~10000 nM
same,amount of phospho-c-Met in tumor,phospho-c-Met,significant decrease in the amount of phospho-c-Met
same,sensitivity (cytotoxicity MTS assay),NCI-H661,little sensitivity
same,sensitivity (cytotoxicity MTS assay),SK-MEL-28,little sensitivity
same,sensitivity (cytotoxicity MTS assay),MCF-7,little sensitivity
